Measured values as given in article PMC7477407, “In vivo studies of a peptidomimetic that targets EGFR dimerization in NSCLC” (Journal of Cancer, 2020).
Where two headings read alike, the source gives them in different places. Numbered stars: 1 amine (or outer) side, 2 acyl side, 3 side chain; on linkers, the order of the positions; unused ones are H or OH. Square brackets hold non-standard residues; d marks the D form. Peptide text beside a SMILES is read from it. βAla(3R-(1-naphthyl)) = O=C(C[C@@H](N[*:1])c1cccc2ccccc12)[*:2]

Experiments:
[1] = system: A549 Red-FLuc lung tumors; assay: Antitumor assessment, experimental metastasis lung cancer model, bioluminescence imaging; format: in vivo; settings: 18 6 mg/kg, lapatinib 10 mg/kg, twice a week; A549-Red-FLuc lung tumors in nude mice
Procedure: All animal studies were conducted in accordance with NIH guidelines for care, and use of laboratory animals and protocols were approved by the Institutional Animal Care and Use Committee at the University of Louisiana Monroe. Bioware® Brite Cell Line A549 Red-FLuc cells that had been engineered to express firefly luciferase (Perkin Elmer) were injected into the tail vein (4.5 × 10^6 cells in 200 µl PBS per mouse) of 6-week-old Foxn1^nu-nude mice. For bioluminescence imaging, mice were anesthetized with 1-3% isoflurane and 150 mg/kg of D-luciferin (PerkinElmer) in phosphate-buffered saline (PBS) was given by intraperitoneal injection. 8 min after injection, bioluminescence was imaged with an IVIS Lumina III Series (PerkinElmer), and regions of interest (ROI) were drawn around the bioluminescent signals and quantified as photons/second (p/s). Mice with tumors were divided into three groups viz. control (vehicle), 18 treatment, and lapatinib treatment. After two weeks of the inoculation of tumor cells, mice from the respective groups were injected intravenously with 18 (6 mg/kg) or lapatinib (10 mg/kg) or vehicle twice a week for the next three weeks. To evaluate the effect of the treatments, tumors were imaged, and bioluminescence was measured once a week. […]

[2] = system: lung, heart, kidney, liver tissue; format: in vivo, mice; settings: for Lung histology (H&E) compared to vehicle: day 35, 18 6 mg/kg, lapatinib 10 mg/kg
Procedure: For histopathological analysis, lungs, kidney, liver, heart, and pancreas were excised from the mice and fixed with 10% normal formalin solution. These fixed samples were embedded in paraffin, and slides were prepared by cutting them into 5 μm slices and mounting on the glass. Prepared slides were stained using hematoxylin and eosin (H&E) staining. Slides were visualized under a microscope (Nikon labophot 2. Type120) and pictures were taken at different magnifications for analysis. Representative pictures from histopathology analysis were used for presentation.

HER2 phosphorylation = assay: Western blot of HER2 phosphorylation in lung tumor tissue; format: in vivo, mice; settings: tumors harvested day 35; 18 6 mg/kg, lapatinib 10 mg/kg
Procedure: A549 cells were treated with 2 µM 18 or 2 µM lapatinib (positive control). Cells without treatment were employed as a negative control. Cells were treated for 36 h, washed, and trypsinized. 35 μg of protein from each sample was loaded on Novex® 4-20% tris-glycine gels and transferred into nitrocellulose membranes. The membranes were blocked with 2% bovine serum albumin solution and incubated with primary antibodies overnight at 4 °C. Antibodies for the detection of total HER2 protein (t-HER2), phosphorylated HER2 protein (p-HER2), total AKT (t-AKT); (Cell Signaling Technology, phosphorylated AKT (P-Akt, S473); (Cell Signaling Technology) were used at 1:1000 dilution. Secondary antibodies with HRP conjugation was incubated for 1 h. After the addition of the substrate and enhancer solutions from a super signal enhanced chemiluminescence kit (Pierce, Rockford, IL) to the membrane, images were captured using ChemiDoc™ Touch Gel Imaging System (Bio-Rad), and band densities were quantified. A representative Western blot image was used for the final presentation. […]
All animal studies were conducted in accordance with NIH guidelines for care, and use of laboratory animals and protocols were approved by the Institutional Animal Care and Use Committee at the University of Louisiana Monroe. […] To evaluate the effect of the treatments, tumors were imaged, and bioluminescence was measured once a week. […]

MCF-10A = system: MCF-10A; design: method as in ref 20 (a number printed in a supplementary file, which may have a reference list of its own: not looked up in the article's list); settings: MCF-10A non-cancerous breast cell line, basal HER2; read-out: IC50, antiproliferative activity in MCF-10A; cited from earlier work
in vitro [3] = settings: simulated gi fluid
Procedure: (§10) Simulated intestinal fluid TS and simulated gastric fluid were purchased from Ricca Chemical (Arlington, TX). Pepsin (0.32 g/100 ml) was added to the simulated gastric fluid. To determine the effect of simulated gastric and intestinal fluids on 18, it (10µM) was incubated in gastric fluid with pepsin for 6 h and intestinal fluid for 12 h at 37 °C. Samples were taken at particular time intervals and analyzed using the HPLC method [33]. Methods used were similar to the methods explained above for HPLC analysis.

[4] = mouse, in vivo, iv
Procedure: (§11) Female Foxn1-nude, 6-7 week-old mice (Envigo) were used in all studies.
(§12) After administration of the compound, mice were sacrificed at certain time intervals (0, 0.25, 0.75, 2, 4, 6, 12 and 24 h), and blood samples were taken to study the amount of compound remaining in blood circulation. The samples were then centrifuged at 1000 rpm for 5 min. The separated supernatant serum samples were precipitated by acetonitrile to extract the analytes and passed through the Sep-Pak (Waters) column. Chromatographic separation was performed on an HPLC. Mass spectrometry was used to identify the correct molecular ion of the intact compound.
(§13) Blood samples were collected at different time intervals, and analysis of the sample was accomplished using HPLC and mass spectrometry. […] For pharmacokinetic parameter analysis, PKSolver software was used [50]. […] Based on the AIC, SC, and curve fitting by the PKSolver software, intravenous bolus administration/two compartmental model was selected for deriving our reported pharmacokinetic parameters.

[5] = 25 to 80 °C, 18 μM
Procedure: Circular dichroism experiments were done using a Jasco J-815 CD Spectrometer (Jasco, Japan) at temperatures from 20 to 80 °C with a gradual 5 °C increase before reading. […] The spectra for samples were recorded from 185-350 nm wavelengths with a total of four scans for each temperature, and wavelength vs. ellipticity was plotted for an average of four scans.

physchem = settings: buffer, pH 1
Excerpt: Shimadzu FCV-20AH2 manual injector was used with Ultra C18, 5 µm (250 × 4.6 mm) column, Shimadzu SPD-20A UV/Vis detector, and Shimadzu LC-20AP pump. 40% acetonitrile (0.1% TFA) with 60% water (0.1% TFA) was used as mobile phase. Relative Peak area was plotted as % remaining compound with respect to time compared with zero time point, and data are from triplicate experiments. For pH stability, a buffer with pH 1 was obtained by adding 0.1 M HCl, and a buffer with pH 7.5 was obtained by adding 0.1 M PBS (Sigma).

SKOV-3 = settings: read-out: IC50, antiproliferative activity in SKOV-3; SKOV-3 ovarian cancer, HER2+
Procedure: (§1) In a 96-well plate, 1 × 10^4 cells/well were seeded and incubated overnight at 37 °C and 5% CO2. The stock solution of the peptidemimetic was prepared by dissolving them in DMSO. Stock solutions of the compound and controls were diluted using the serum-free medium to prepare solutions of different concentrations of compounds with DMSO concentration not exceeding 1% (v/v) in the final solution in each well of a 96-well plate. […] A dose-response curve was generated using percentage cell viability vs. log concentration of compounds, and IC50 values were obtained using Prism® (GraphPad Software). Experiments were repeated three times to obtain standard deviation values.
(§2) In vivo Studies of a Peptidomimetic that Targets EGFR
(§3) Leeza Shrestha1, Sitanshu Singh1, Pravin Parajuli1, Achyut Dahal1, George Mattheolabakis1,
(§4) Sharon Meyer1, Joydeep Bhattacharjee2, Seetharama Jois1*
(§5) 1School of Basic Pharmaceutical and Toxicological Sciences, College of Pharmacy, University
(§6) of Louisiana Monroe, Monroe, LA 71201.
(§7) 2Biology Program, School of Sciences, University of Louisiana Monroe, Monroe, LA 71029.

NCI-H1975 = settings: read-out: IC50, antiproliferative activity in NCI-H1975; NCI-H1975 EGFR mutated NSCLC cell line
Procedure: as §1, §2, §3, §4, §5, §6, §7

in vitro [6] = settings: simulated gi fluid; remark: listed apart in the source
Procedure: as §10

MCF-7 = MCF-7 breast cancer, HER2-; read-out: IC50, antiproliferative activity in MCF-7; cited from earlier work
A549 cells = settings: read-out: IC50, antiproliferative activity in A549; A549 NSCLC, HER2+; 72 h, serum-free medium, CellTiter-Glo
Procedure: HER2 positive A549 lung cancer cell line was purchased from American Type Culture Collection (ATCC, Manassas, VA) and subcultured in RPMI media (ATCC) with 10% FBS. […] Cells were incubated in a humidified atmosphere of 5% CO2 at 37°C.

[7] = system: phosphorylated HER2 protein (p-HER2); assay: Western blot of HER2 phosphorylation in A549 cells; format: cell-based, human; settings: 2 µM, 36 h, Western blot densitometry
Procedure: (§8) A549 cells were treated with 2 µM 18 or 2 µM lapatinib (positive control). Cells without treatment were employed as a negative control. Cells were treated for 36 h, washed, and trypsinized. 35 μg of protein from each sample was loaded on Novex® 4-20% tris-glycine gels and transferred into nitrocellulose membranes. The membranes were blocked with 2% bovine serum albumin solution and incubated with primary antibodies overnight at 4 °C. Antibodies for the detection of total HER2 protein (t-HER2), phosphorylated HER2 protein (p-HER2), total AKT (t-AKT); (Cell Signaling Technology, phosphorylated AKT (P-Akt, S473); (Cell Signaling Technology) were used at 1:1000 dilution. Secondary antibodies with HRP conjugation was incubated for 1 h. After the addition of the substrate and enhancer solutions from a super signal enhanced chemiluminescence kit (Pierce, Rockford, IL) to the membrane, images were captured using ChemiDoc™ Touch Gel Imaging System (Bio-Rad), and band densities were quantified. A representative Western blot image was used for the final presentation. Data are from triplicates and are presented as the mean ± standard error of the mean (SEM). To evaluate the significance, statistical analysis was performed by a one-tail T-test using Prism Graph Pad (GraphPad Software, San Diego). P< 0.05 was considered statistically significant, [32].

SKBR-3 = system: SKBR-3; design: method as in ref 20 (Kanthala et al. Oncotarget 8(43):74244-74262); settings: SKBR-3 breast cancer, HER2+; ref 20 (Kanthala et al. Oncotarget 8(43):74244-74262); read-out: IC50, antiproliferative activity in SKBR-3; cited from earlier work
[8] = system: phosphorylated AKT (P-Akt, S473); assay: Western blot of Akt phosphorylation in A549 cells; format: cell-based, human; settings: 2 µM, 36 h, Western blot densitometry
Procedure: as §8

EGFR:HER2 dimerization = target: T1, EGFR:HER2 dimerization (Homo sapiens, UniProt P04626); assay: Proximity ligation assay on lung tumor tissue, EGFR:HER2; format: in vivo, mice; settings: 6 mg/kg, vs vehicle control
T1 construct: from tissue; host or cells: Lung tumour tissue of nude mice injected IV with A549-Red-FLuc human NSCLC cells
Procedure: (§9) The lung tissue samples with tumors were fixed on the slides. […] Antigen retrieval on the tissue section of slides was done in a steaming sodium citrate buffer (10 mM, 0.05% Tween 20, pH 6.0) for 15 min. Tissue slides were incubated with primary antibodies overnight at 4 °C and washed, and secondary antibodies PLA+ and PLA- were added. After incubation and washing, PLA detection reagents were added, [36]. The mounting medium was then added, and the slides were coverslipped. Slides were viewed using an Olympus BX63 fluorescence microscope fitted with deconvolution optics using DAPI, and Texas Red filters. Images were obtained at 40×.

HER2 expression = system: HER2 expression; design: method as in ref 20 (a number printed in a supplementary file, which may have a reference list of its own: not looked up in the article's list); settings: HER2-positive breast cancer xenograft, 4 mg/kg IV; cited from earlier work
[9] = target: human serum albumin (HSA) (Homo sapiens, UniProt P02768)
Procedure: Surface plasmon resonance analysis was performed in 0.01 M phosphate-buffered saline (NaCl 0.138 M; KCl -0.0027 M); Tween® 20 -0.05%, pH 7.4 using a Reichert Life Sciences System. Immobilization of HSA to the hydrophilic carboxymethylated dextran matrix of the CM5 sensor chip was carried out by the standard primary amine coupling method. […] All binding experiments were performed at a flow rate of 25 µL/min. After each interaction analysis, the sensor chip was regenerated with water. […] The Kd values were obtained using the 1:1 kinetic evaluation fitting tool of Tracedrawer software.

[10] = mouse, in vivo, iv; remark: listed apart in the source
Procedure: as §11, §12, §13
HER2:HER3 dimerization = target: T2, HER2:HER3 dimerization (Homo sapiens, UniProt P04626); assay: Proximity ligation assay on lung tumor tissue, HER2:HER3; format: in vivo, mice; settings: 6 mg/kg, vs vehicle control
T2 construct: from tissue; host or cells: Lung tumour tissue of nude mice injected IV with A549-Red-FLuc human NSCLC cells
Procedure: as §9

Chain of human serum albumin (HSA) (P02768 25-609): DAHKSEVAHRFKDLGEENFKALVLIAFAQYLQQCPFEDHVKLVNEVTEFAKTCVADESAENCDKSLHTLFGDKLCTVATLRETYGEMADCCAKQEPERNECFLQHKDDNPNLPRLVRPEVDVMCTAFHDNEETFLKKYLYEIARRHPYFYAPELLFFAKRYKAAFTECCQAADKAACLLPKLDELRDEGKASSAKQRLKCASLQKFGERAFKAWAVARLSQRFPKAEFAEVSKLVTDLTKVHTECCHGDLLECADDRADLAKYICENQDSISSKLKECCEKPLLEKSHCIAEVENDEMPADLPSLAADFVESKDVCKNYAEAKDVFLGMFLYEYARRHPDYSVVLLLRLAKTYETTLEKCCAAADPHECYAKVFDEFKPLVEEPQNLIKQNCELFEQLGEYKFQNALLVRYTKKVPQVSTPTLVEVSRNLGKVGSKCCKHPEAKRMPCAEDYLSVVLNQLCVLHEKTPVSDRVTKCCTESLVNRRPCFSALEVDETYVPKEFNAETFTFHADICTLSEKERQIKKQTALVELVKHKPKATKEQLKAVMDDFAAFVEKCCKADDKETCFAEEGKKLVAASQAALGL
T1 sequence (P04626 23-1255): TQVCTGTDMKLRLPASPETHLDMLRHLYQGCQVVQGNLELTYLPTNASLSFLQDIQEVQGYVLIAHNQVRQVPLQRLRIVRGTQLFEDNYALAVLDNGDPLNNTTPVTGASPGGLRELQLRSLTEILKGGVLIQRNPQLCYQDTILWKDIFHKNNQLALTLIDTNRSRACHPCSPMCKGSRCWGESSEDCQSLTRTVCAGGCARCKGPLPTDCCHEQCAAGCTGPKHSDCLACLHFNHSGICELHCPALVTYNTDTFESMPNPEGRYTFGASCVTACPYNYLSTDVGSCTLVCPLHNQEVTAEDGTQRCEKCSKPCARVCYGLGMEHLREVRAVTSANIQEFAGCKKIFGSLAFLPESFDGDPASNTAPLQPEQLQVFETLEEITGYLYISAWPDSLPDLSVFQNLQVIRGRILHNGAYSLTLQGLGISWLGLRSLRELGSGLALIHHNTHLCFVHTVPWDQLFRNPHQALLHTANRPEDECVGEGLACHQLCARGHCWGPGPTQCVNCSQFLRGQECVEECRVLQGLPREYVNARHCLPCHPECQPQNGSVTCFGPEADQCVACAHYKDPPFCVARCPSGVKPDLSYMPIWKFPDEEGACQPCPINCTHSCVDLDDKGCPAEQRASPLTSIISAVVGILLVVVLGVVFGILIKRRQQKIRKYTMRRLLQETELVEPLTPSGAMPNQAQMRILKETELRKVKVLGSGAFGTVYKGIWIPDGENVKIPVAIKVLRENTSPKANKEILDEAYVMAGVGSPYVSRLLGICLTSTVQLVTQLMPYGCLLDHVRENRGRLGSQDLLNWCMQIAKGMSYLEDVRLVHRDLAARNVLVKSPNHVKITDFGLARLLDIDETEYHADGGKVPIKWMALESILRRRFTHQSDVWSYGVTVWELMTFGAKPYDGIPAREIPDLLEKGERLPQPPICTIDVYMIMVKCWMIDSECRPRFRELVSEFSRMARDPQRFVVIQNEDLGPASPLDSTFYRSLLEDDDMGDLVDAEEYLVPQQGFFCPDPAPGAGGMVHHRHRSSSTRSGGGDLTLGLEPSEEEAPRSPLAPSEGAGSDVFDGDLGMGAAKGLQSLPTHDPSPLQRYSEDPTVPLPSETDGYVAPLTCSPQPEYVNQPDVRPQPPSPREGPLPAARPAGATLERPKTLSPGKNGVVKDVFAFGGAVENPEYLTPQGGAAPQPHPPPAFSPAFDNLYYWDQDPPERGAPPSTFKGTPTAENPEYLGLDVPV
T2 sequence (P04626 23-1255): as above

CS(=O)(=O)CCNCc1ccc(-c2ccc3ncnc(Nc4ccc(OCc5cccc(F)c5)c(Cl)c4)c3c2)o1 [lapatinib, reference compound]
Rate of tumor growth indicated by total flux compared with vehicle [1]: decreased | Lung histology (H&E) compared to vehicle [2]: remarkably fewer tumors and less inflammatory infiltration | HER2 phosphorylation in lung tumor tissue compared to control (HER2 phosphorylation): inhibited HER2 phosphorylation to a significant extent

N=C(N)NCCC[C@@H]1NC(=O)[C@H]2CCCN2C(=O)[C@@H]2CCCN2C(=O)[C@H](CCCNC(=N)N)NC(=O)C[C@H](c2cccc3ccccc23)NC(=O)[C@H](Cc2ccccc2)NC(=O)[C@H](CC(=O)O)NC(=O)[C@H](CC(=O)O)NC(=O)[C@H](Cc2ccccc2)NC(=O)C[C@H](c2cccc3ccccc23)NC1=O [Compound 18] (cyclo(DDF[βAla(3R-(1-naphthyl))]RP[dP]R[βAla(3R-(1-naphthyl))]F))
IC50 (MCF-10A): 40 µM | remaining at 6 h, 10 µM (in vitro [3]): > 80% | AUC(0-inf) [4]: ~459 µg·h/mL | Vd [4]: ~0.011 L | clearance [4]: ~0.00433 mL/min | half-life ([4]; 4 mg/kg, Terminal half-life): ~42 h | half-life ([4]; 6 mg/kg, Terminal half-life): ~46 h | half-life ([4]; Distribution half-life): ~0.8 h | half-life ([4]; Terminal half-life in vivo): > 40 h | Change of circular dichroism spectra (backbone conformation) with temperature [5]: did not show any significant change | remaining at 720 h (physchem): > 40% | IC50 (SKOV-3): 0.853 ± 0.102 µM | IC50 (NCI-H1975): 4.85 ± 0.217 µM | remaining at 12 h, 10 µM (in vitro [6]): > 40% | IC50 (MCF-7): > 50 µM | Rate of tumor growth indicated by total flux compared with vehicle [1]: decreased | IC50 (A549 cells): 0.868 ± 0.032 µM | Inhibition of phosphorylation of HER2 compared to control [7]: 41.6% | IC50 (SKBR-3): 0.194 ± 0.046 µM | Inhibition of phosphorylation of Akt compared to control [8]: 24.7% | EGFR:HER2 dimerization in lung tumor tissue (PLA red fluorescence) (EGFR:HER2 dimerization): reduction in red fluorescence | Toxicity to organs (heart, liver, lung, kidney), H&E ([2]; 6 mg/kg, three weeks of treatment): no significant tissue damage or toxic effects | Lung histology (H&E) compared to vehicle [2]: remarkably fewer tumors and less inflammatory infiltration | Change in HER2 expression in xenograft tumor tissue (HER2 expression): no | Time after which concentration decreases significantly at pH 1 (pH 1): > 4 days | Stability at pH 7.5 (pH 7.5): stable for 30 days | HER2 phosphorylation in lung tumor tissue compared to control (HER2 phosphorylation): inhibited HER2 phosphorylation to a significant extent | Compound in free form [9]: ~22% | Vd peripheral [10]: ~17 mL | HER2:HER3 dimerization in lung tumor tissue (PLA red fluorescence) (HER2:HER3 dimerization): reduction in red fluorescence
